Source: US20230139171A1 (SITA Information Networking Computing UK Limited, priority 2019, published 2023)
Where a name gives a salt, the structure may show the parent alone.

How the values were obtained:
Format in all cases: cell-based
human TLR7 = target: T1, human TLR7 (Homo sapiens, UniProt Q9NYK1); assay: TLR7 inhibition reporter assay (HEK-Blue cells, SEAP reporter, gardiquimod stimulation); conditions: HEK-Blue cells overexpressing human TLR7, SEAP reporter, gardiquimod 7.5 μM; read-out: TLR7 IC50
T1 construct: host or cells: HEK-Blue cells
T1 sequence (Q9NYK1 27-1049): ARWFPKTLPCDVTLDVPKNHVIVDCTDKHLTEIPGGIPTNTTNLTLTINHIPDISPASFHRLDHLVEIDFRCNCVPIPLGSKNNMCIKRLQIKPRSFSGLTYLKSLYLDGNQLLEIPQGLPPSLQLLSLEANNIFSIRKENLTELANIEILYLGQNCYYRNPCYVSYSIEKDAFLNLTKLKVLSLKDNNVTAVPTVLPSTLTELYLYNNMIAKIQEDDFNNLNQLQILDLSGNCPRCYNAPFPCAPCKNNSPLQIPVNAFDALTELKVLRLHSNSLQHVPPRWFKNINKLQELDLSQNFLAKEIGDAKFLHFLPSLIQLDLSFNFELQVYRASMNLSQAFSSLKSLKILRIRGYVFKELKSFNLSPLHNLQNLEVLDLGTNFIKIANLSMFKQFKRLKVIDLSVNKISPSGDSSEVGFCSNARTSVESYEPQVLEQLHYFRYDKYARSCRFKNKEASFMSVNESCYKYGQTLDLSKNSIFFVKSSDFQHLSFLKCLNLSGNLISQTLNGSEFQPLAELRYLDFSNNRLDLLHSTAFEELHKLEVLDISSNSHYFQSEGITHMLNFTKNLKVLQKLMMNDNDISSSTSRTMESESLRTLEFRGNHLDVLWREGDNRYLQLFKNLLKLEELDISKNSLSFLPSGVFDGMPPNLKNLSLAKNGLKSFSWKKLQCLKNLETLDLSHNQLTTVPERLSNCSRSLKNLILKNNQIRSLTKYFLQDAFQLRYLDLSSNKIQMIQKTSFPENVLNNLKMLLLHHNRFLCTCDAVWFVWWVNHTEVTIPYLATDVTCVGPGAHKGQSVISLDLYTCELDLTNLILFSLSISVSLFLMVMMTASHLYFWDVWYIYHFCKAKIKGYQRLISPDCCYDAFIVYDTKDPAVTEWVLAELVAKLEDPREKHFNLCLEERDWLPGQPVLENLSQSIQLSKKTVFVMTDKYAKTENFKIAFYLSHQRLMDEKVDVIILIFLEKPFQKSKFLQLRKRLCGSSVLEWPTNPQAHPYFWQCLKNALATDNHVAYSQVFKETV
Summary of the method: (§1)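 Human TLR7/8/9 HEK-Blue reporter lines; dose range 0.05 nM–50 μM; 30 min RT preincubation; stimulus gardiquimod 7.5 μM / R848 15.9 μM / ODN2006 5 nM respectively; 22 h, 37 °C; SEAP detected colorimetrically.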

human TLR8 = target: T2, human TLR8 (Homo sapiens, UniProt Q9NR97); assay: TLR8 inhibition reporter assay (HEK-Blue cells, SEAP reporter, R848 stimulation); conditions: HEK-Blue cells overexpressing human TLR8, SEAP reporter, R848 15.9 μM; read-out: TLR8 IC50
T2 construct: host or cells: HEK-Blue cells
T2 sequence (Q9NR97 27-1041): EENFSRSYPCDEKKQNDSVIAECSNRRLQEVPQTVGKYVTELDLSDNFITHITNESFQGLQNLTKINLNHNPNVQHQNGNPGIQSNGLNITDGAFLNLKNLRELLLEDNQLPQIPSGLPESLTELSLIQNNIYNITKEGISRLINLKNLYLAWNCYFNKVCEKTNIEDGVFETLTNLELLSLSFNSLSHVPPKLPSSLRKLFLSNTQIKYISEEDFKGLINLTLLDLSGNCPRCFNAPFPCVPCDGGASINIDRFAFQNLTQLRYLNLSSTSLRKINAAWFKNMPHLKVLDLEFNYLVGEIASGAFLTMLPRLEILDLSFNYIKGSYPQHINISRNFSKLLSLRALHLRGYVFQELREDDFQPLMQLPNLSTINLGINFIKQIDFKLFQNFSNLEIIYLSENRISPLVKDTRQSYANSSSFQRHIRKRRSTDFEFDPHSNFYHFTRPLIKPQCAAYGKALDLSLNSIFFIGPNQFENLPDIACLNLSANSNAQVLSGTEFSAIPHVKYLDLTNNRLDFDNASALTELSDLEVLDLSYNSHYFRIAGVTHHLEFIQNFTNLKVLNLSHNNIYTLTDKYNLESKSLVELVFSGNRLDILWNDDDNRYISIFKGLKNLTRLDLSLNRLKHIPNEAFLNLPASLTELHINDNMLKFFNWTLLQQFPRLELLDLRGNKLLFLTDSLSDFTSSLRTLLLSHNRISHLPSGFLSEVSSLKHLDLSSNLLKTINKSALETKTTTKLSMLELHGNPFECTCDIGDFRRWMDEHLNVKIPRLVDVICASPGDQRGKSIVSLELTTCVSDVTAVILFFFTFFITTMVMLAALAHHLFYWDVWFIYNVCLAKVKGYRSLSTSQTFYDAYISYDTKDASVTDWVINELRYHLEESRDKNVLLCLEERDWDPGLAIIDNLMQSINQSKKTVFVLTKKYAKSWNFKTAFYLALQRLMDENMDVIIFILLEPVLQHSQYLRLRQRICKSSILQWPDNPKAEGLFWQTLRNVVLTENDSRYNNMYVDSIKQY
Summary of the method: as §1

human TLR9 = target: T3, human TLR9 (Homo sapiens, UniProt Q9NR96); assay: TLR9 inhibition reporter assay (HEK-Blue cells, SEAP reporter, ODN2006 stimulation); conditions: HEK-Blue cells overexpressing human TLR9, SEAP reporter, ODN2006 5 nM
T3 construct: host or cells: HEK-Blue cells
T3 sequence (Q9NR96 26-1032): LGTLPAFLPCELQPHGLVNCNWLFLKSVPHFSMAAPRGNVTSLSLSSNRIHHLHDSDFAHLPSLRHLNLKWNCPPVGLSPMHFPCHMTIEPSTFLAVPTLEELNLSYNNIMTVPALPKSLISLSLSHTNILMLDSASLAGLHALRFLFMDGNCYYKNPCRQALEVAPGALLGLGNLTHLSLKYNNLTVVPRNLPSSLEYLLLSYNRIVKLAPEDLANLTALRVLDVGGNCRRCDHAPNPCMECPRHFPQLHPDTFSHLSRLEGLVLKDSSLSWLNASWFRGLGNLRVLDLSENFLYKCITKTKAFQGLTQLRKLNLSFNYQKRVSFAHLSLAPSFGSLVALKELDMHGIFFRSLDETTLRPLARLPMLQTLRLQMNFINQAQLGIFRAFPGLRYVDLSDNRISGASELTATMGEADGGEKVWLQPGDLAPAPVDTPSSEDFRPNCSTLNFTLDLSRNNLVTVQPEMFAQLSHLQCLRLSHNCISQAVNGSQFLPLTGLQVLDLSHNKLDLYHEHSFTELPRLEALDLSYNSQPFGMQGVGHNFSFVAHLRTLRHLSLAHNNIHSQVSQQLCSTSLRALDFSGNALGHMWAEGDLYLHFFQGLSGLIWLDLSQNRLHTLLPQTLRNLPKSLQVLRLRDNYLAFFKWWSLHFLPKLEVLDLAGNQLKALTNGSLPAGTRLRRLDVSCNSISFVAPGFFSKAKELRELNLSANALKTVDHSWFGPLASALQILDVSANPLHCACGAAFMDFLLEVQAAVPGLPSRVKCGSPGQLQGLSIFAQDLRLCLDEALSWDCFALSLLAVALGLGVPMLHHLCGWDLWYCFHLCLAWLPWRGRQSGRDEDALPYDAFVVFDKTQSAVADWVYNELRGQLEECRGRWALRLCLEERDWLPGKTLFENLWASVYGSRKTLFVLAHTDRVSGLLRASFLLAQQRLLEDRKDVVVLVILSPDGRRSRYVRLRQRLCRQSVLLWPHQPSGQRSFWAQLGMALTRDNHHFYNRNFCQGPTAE
Summary of the method: as §1

SMILES	IC50 (human TLR7) [nM]	IC50 (human TLR8) [nM]	IC50 (human TLR9) [nM]
Cc1c(-c2[nH]c3sc(N4CCNC[C@H]4C)nc3c2C(C)C)cn2ncnc2c1C [Example 308, (R)-5-(7,8-dimethyl-[1,2,4]triazolo[1,5-a]pyridin-6-yl)-6-isopropyl-2-(2-methylpiperazin-1-yl)-4H-pyrrolo[3,2-d]thiazole, HCl]	0.18	0.09	15800
Cc1c(-c2[nH]c3sc(C4CCC(NC5CCS(=O)(=O)C5)CC4)nc3c2C(C)C)cn2ncnc2c1C (single isomer, unassigned) [Example 231, 3-((4-(5-(7,8-dimethyl-[1,2,4]triazolo[1,5-a]pyridin-6-yl)-6-isopropyl-4H-pyrrolo[3,2-d]thiazol-2-yl)cyclohexyl)amino)tetrahydrothiophene 1,1-dioxide]	6.32	1.19	49500
COc1cc(-c2[nH]c3sc(C4CCN(CCS(C)(=O)=O)CC4)nc3c2C(C)C)cn2ncnc12 [Example 16, 6-isopropyl-5-(8-methoxy-[1,2,4]triazolo[1,5-a]pyridin-6-yl)-2-(1-(2-(methylsulfonyl)ethyl)piperidin-4-yl)-4H-pyrrolo[3,2-d]thiazole]	3.09	2.74	43500
COc1cc(-c2[nH]c3sc(C4CCN(CC(C)(C)C)CC4)nc3c2C(C)C)cn2ncnc12 [Example 13, 6-isopropyl-5-(8-methoxy-[1,2,4]triazolo[1,5-a]pyridin-6-yl)-2-(1-neopentylpiperidin-4-yl)-4H-pyrrolo[3,2-d]thiazole]	5.04	2.03	3330
Cc1cc(-c2[nH]c3sc(C4CCC(NC5COC5)CC4)nc3c2C(C)C)cn2ncnc12 (single isomer, unassigned) [Example 131, N-(4-(6-isopropyl-5-(8-methyl-[1,2,4]triazolo[1,5-a]pyridin-6-yl)-4H-pyrrolo[3,2-d]thiazol-2-yl)cyclohexyl)oxetan-3-amine]	7.48	32.6	10900
Cc1c(-c2[nH]c3sc(C4CCC(N5CC(F)C5)CC4)nc3c2C(C)C)cn2ncnc2c1C (single isomer, unassigned) [Example 226, 5-(7,8-dimethyl-[1,2,4]triazolo[1,5-a]pyridin-6-yl)-2-(4-(3-fluoroazetidin-1-yl)cyclohexyl)-6-isopropyl-4H-pyrrolo[3,2-d]thiazole]	0.35	0.41	6780
CNC(=O)CN1CCC(c2nc3c(C(C)C)c(-c4cc(OC)c5ncnn5c4)[nH]c3s2)CC1 [Example 8, 2-(4-(6-isopropyl-5-(8-methoxy-[1,2,4]triazolo[1,5-a]pyridin-6-yl)-4H-pyrrolo[3,2-d]thiazol-2-yl)piperidin-1-yl)-N-methylacetamide]	2.47	5.42	30900
Cc1cc(-c2[nH]c3sc(C4CCN(C(C)C)CC4)nc3c2C(C)C)cc(C)n1 [Example 25, 5-(2,6-dimethylpyridin-4-yl)-6-isopropyl-2-(1-isopropylpiperidin-4-yl)-4H-pyrrolo[3,2-d]thiazole]	25.6	10.3	447
COc1cc(-c2[nH]c3sc(C4CCC(NC[C@@H](F)C(C)(C)O)CC4)nc3c2C(C)C)cn2ncnc12 (single isomer, unassigned) [Example 91]	4.01	8.12	6720

More lines, now with the values ahead:

IC50 (human TLR7) [nM]	IC50 (human TLR8) [nM]	IC50 (human TLR9) [nM]	SMILES
50.3	168	37100	COc1cc(-c2[nH]c3sc(C(=O)NCC(F)F)nc3c2C(C)C)cn2ncnc12 [Example 389, N-(2,2-difluoroethyl)-6-isopropyl-5-(8-methoxy-[1,2,4]triazolo[1,5-a]pyridin-6-yl)-4H-pyrrolo[3,2-d]thiazole-2-carboxamide]
55.7	22.9	28000	Cc1c(-c2[nH]c3sc(C(=O)N4CC(F)C4)nc3c2C(C)C)cn2ncnc2c1C [Example 379, (5-(7,8-dimethyl-[1,2,4]triazolo[1,5-a]pyridin-6-yl)-6-isopropyl-4H-pyrrolo[3,2-d]thiazol-2-yl) (3-fluoroazetidin-1-yl)methanone]
14	3.29	47700	Cc1c(-c2[nH]c3sc(C4CCC(N5CC(F)C5)CC4)nc3c2C(C)C)cn(C)c(=O)c1C (single isomer, unassigned) [Example 265, 5-(2-(4-(3-fluoroazetidin-1-yl)cyclohexyl)-6-isopropyl-4H-pyrrolo[3,2-d]thiazol-5-yl)-1,3,4-trimethylpyridin-2(1H)-one]
10.3	3.56	9560	Cc1c(-c2[nH]c3sc(C(=O)NCC4CNCCO4)nc3c2C(C)C)cn2ncnc2c1C (stereo not drawn) [Example 386, 5-(7,8-dimethyl-[1,2,4]triazolo[1,5-a]pyridin-6-yl)-6-isopropyl-N-(morpholin-2-ylmethyl)-4H-pyrrolo[3,2-d]thiazole-2-carboxamide]
